{"source": "patent US9492464B2", "about": "“Composition for preventing or treating side effect of steroid in subject comprising acetylsalicylic acid and use thereof” (Samsung Electronics Co., Ltd., priority 2014, dated 2016)", "format_in_all_cases": "cell-based, mouse", "key": {"glucocorticoid receptor": {"tested_on": "glucocorticoid receptor", "assay": "Immunoblotting of phosphorylated glucocorticoid receptor (pGR) in differentiated C2C12 cells", "conditions": "40, 400 or 4000 μM Aspirin pre-treatment 24 hours, then 2 μM dexamethasone 24 hours; as amount of Aspirin increases, FIG. 1", "procedure": "First, C2C12 cell lines (mouse gastrocnemius muscle, ATCC® CRL-1772™) were seeded in a 60 mm dish in 10% FBS/DMEM and incubated at 37° C. in a 5% CO2 incubator. When the cells formed 70% confluent, the culture medium was replaced with 2% FBS/DMEM and the cells were cultured for 4 days to completely induce differentiation into muscle cells. C2C12 cell lines are mouse myoblast cell lines obtained by continuous culture of myoblast cells cultured from gastrocnemius muscle of C3H mice.\nWhen C2C12 cells were completely differentiated into muscle cells, the culture medium was removed therefrom, and 4 ml of a fresh culture medium including 40 μM, 400 μM, or 4000 μM of Aspirin (Sigma Aldrich) was added thereto, and then the cells were cultured for 24 hours. 2 μM of dexamethasone (Sigma Aldrich) was added to the cultured cells and the cells were further cultured for 24 hours. A negative control group was not treated with acetylsalicylic acid and dexamethasone.\nThe culture medium was removed therefrom, and the cells were collected. Then, 500 μl of RIPA (20 mM Tris-HCl (pH 7.5), 150 mM NaCl, 1 mM Na2EDTA, 1 mM EGTA, 1% NP-40, 1% (w/v) sodium deoxycholate, 2.5 mM sodium pyrophosphate, 1 mM beta-glycerophosphate, 1 mM Na3VO4, and 1 μg/ml leupeptin) lysis buffer was added thereto. The cells were lysed to obtain lysates. […]"}, "Atrogin-1": {"tested_on": "Atrogin-1", "assay": "Real time PCR of Atrogin-1 mRNA in differentiated C2C12 cells", "conditions": "400 μM Aspirin 24 hours, then 2 μM dexamethasone 24 hours, normalized to GAPDH, FIG. 3A", "procedure": "(§1) As described above with reference to Example 1(2), C2C12 cells were completely differentiated into muscle cells, and 4 ml of a fresh culture medium including 400 μM of Aspirin (Sigma Aldrich) was added thereto, and then the cells were cultured for 24 hours. 2 μM of dexamethasone (Sigma Aldrich) was added to the cultured cells, and the cells were cultured for 24 hours. The culture medium was removed therefrom, and the cells were collected. A negative control group was not treated with acetylsalicylic acid and dexamethasone.\n(§2) A Trizol reagent (Invitrogen) was added to the collected cells, and total RNA was separated therefrom according to manufacturer's protocols. Complementary DNA (cDNA) was synthesized from the separated total RNA by using a reverse transcriptase. Amounts of mRNA of Atrogin-1 and MuRF-1 were quantified using a real time PCR device (MyiQPCR instrument, BioRad) that is a device measuring SYBR Green. The results were normalized with respect to an amount of GAPDH mRNA. […]\n(§3) Values obtained via amplification were normalized by GAPDH gene, and relative expression levels of mRNA of Atrogin-1 and MURF-1 were quantified. The quantified relative expression levels (arbitrary unit (AU)) of mRNA of Atrogin-1 and MURF-1 are illustrated in FIGS. 3A and 3B, respectively, […]"}, "MuRF-1": {"tested_on": "MuRF-1", "assay": "Real time PCR of MuRF-1 mRNA in differentiated C2C12 cells", "conditions": "400 μM Aspirin 24 hours, then 2 μM dexamethasone 24 hours, normalized to GAPDH, FIG. 3B", "procedure": "as §1, §2, §3"}}, "data": [{"smiles": "CC(=O)Oc1ccccc1C(=O)O", "note": "[Aspirin, 2-(acetyloxy)benzoic acid]", "values": [{"measurement": "amount of glucocorticoid receptor GR phosphorylated by dexamethasone", "setting": "glucocorticoid receptor", "value": "decreases"}, {"measurement": "expression of mRNA of Atrogin-1", "setting": "Atrogin-1", "value": "did not increase"}, {"measurement": "expression of mRNA of MuRF1", "setting": "MuRF-1", "value": "did not increase"}]}]}
